Patent publication US20240398786A1, “7-ETHYL-10-HYDROXY-CAMPTOTHECIN (SN-38) ALBUMIN CONJUGATES FOR TREATMENT OF CANCERS” (Ohio State Innovation Foundation, priority 2021, published 2024)

Key:
[1] = test system: MP2-shCtrl/shCav-1 tumors; test: MP2-shCtrl/shCav-1 flank xenografts in athymic nude mice; format: in vivo; conditions: SSH20 10 mg/kg or molar equivalent of irinotecan, intravenous retro-orbital
Method: (§1) Briefly, 180 μL of SSH20 was added to 1620 μL of pooled human serum off the clot (Innovative Research, Novi, MI) to form a 10% SSH20 solution, which was incubated at 37° C. Aliquots were collected at preset time points, a fixed amount of internal standard (10-hydroxycamptothecin, 10-HCPT) was added to each sample aliquot and the solutions were mixed thoroughly on vortex prior to protein precipitation by acetonitrile. Protein precipitates were pulled down by 17,000×g centrifugation for 5 minutes. The dissociated SN-38 in the supernatant was analyzed by reverse-phase HPLC, using parameters described above, detected by PDA at 368 nm. SN-38/internal standard peak ratios were correlated with an SN-38 standard curve (using the same preparation method) to obtain the concentrations of released SN-38. The plot of the kinetics of SN-38 release was generated by Prism, and the half-life was calculated by one-phase exponential association. […] To obtain a tumor growth curve, perpendicular diameter measurements of each tumor were measured every 1-5 days from the first day of injection with digital calipers, and volumes were calculated using the formula (L×W×W)/2. Weight and clinical signs of toxicity were monitored several times per week.

[2] = test system: H23-shCtrl/shCav-1 tumors; test: H23-shCtrl/shCav-1 flank xenografts in athymic nude mice; format: in vivo; conditions: SSH20 10 mg/kg or molar equivalent of irinotecan, intravenous retro-orbital
Method: as §1

[3] = test system: MP2 cell line; test: Inhibitory activity of SN-38/HSA conjugates against the MP2 cell line; format: cell-based
Method: AlamarBlue proliferation assay was performed according to the manufacturer's instructions (BioRad Antibodies, Oxford, UK). Briefly, cells were seeded in 96-well plates in 4 replicates at a density of 100-300 cells per well in 100 μL medium and treated as described. Seventy-two hours after plating, alamarBlue reagent was added and incubated at 37° C. for 4-8 hours, and absorbance was measured at 570 and 600 nm.

[4] = test system: MIA-PaCa-2 (MP2) shCtrl/shCav-1 cells; test: Uptake by direct fluorescence in MP2 shCtrl vs shCav-1 cells; format: cell-based; conditions: 250 nM pulsed 2 h
Method: (§2) Cells were pulsed either 1 hour with 0.1% FITC-HAS or 2 hours with 250 nM SN/38/SSH20 prior to fixation. When applicable, in order to remove membrane-bound albumin, two acid/salt washes were performed with 0.1M glycine and 0.1M NaCl, pH 3.02 for 2 minutes each, followed by two washes with phosphate buffer saline (PBS). Cells were then fixed with 2% paraformaldehyde for 15 minutes at room temperature and washed 1×PBS 2 times for 5 minutes each. Cells were incubated with 0.1% Triton-x-100 for 10 min on ice to permeabilize, then washed twice with 1×PBS prior to blocking with 3% bovine serum albumin in 1×PBS overnight at 4° C. In a humidified chamber, primary antibodies (1:50) in blocking buffer were added and incubated for 1 hour at 4° C., followed by three 10 minute rinses with blocking buffer. Secondary antibody (conjugated to Alexa Fluor 488, 1:1000) was added along with DAPI for 1 hour at room temperature. Cells were then rinsed, and coverslips were mounted onto slides and then sealed. Cells were then imaged with a confocal microscope with locked settings across the control and respective experimental conditions. For auto-fluorescence experiments with SN-30 and SSH20, images were taken at an emission wavelength of 543 nm. ImageJ was used to measure the fluorescence intensity of individual cells.

[5] = test system: H23 shCtrl/shCav-1 cells; test: Uptake by direct fluorescence in H23 shCtrl vs shCav-1 cells; format: cell-based; conditions: 250 nM pulsed 2 h
Method: as §2

[6] = pharmaceutical solvents; cited from earlier work

IC50 [3] [nM]	Structure (SMILES)	tumor growth rate [1]	tumor growth rate [2]	difference in SN-38 autofluorescent signal between shCtrl and shCav-1 cells [4]	difference in SN-38 autofluorescent signal between shCtrl and shCav-1 cells [5]	solubility, in words [6]
–	CCc1c2c(nc3ccc(OC(=O)N4CCC(N5CCCCC5)CC4)cc13)-c1cc3c(c(=O)n1C2)COC(=O)[C@]3(O)CC [irinotecan, Irinotecan]	not reduced	not reduced	–	–	–
495	CCc1c2c(nc3ccc(O)cc13)-c1cc3c(c(=O)n1C2)COC(=O)[C@]3(O)CC [SN-38, 7-ethyl-10-hydroxy-camptothecin]	–	–	no discernable difference	no discernable difference	virtually insoluble in any pharmaceutical solvent
